Data from patent US20130005783A1, “Prevention And Treatment Of Diseases Caused By Elevated Levels Of Deoxy-Sphingolipids” (priority 2010, published 2013).

Columns and labels:
SPT (wt enzyme) = experiment: DoxSA formation in HEK293 wt cells at various L-serine:L-alanine ratios in the presence of FB1; type: cell-based; conditions: increasing L-serine medium concentrations, varying L-alanine concentrations
Method: (§1) HEK293 wt cells (FIG. 7-I) and Hek cells expressing various mutant forms of SPT (wt, C133W, C133Y, V144D) (FIG. 7-II) were cultured at various L-serine:L-alanine ratios in the presence of FB1 (see above Example 1). […] In the second approach L-alanine concentrations were held constant at 2 mM.
(§2) A further suitable method to screen for putative suppressors of deoxy-sphingolipid synthesis is as follows: a suitable cell line (e.g. HEK293) is cultured to approximately 60% confluency. The compound of interest is added to the culture medium in the appropriate concentration. Additionally, fumonisin B1 (FB1) is added to a final concentration of 10 μg/ml. After 24 h of incubation, cells are washed with PBS and harvested and an aliquot separated for cell counting. The remaining cells are pelleted and extracted in 500 μl extraction buffer (4 volumes MeOH/KOH+1 volume CHCl3), including an internal reference standard (e.g. deuteriated (d7)-sphinganine, (d7)-sphingosine or synthetic C17-sphingosine). Subsequently, 500 μl chloroform, 500 μl alkaline water and 100 μl 2N ammonia are added, followed by centrifugation (120000×g, 5 min). […] The lipids are finally derivatized with o-phthaldialdehyde (OPA) and analysed by LC-MS. […] Deoxysphingoid bases are ionised by APCI (atmospheric pressure chemical ionisation) and analysed in positive ion mode.

[1] = test system: mutant forms of SPT (C133W, C133Y, V144D); experiment: DoxSA formation in Hek cells expressing mutant forms of SPT at increasing L-serine in the presence of FB1; type: cell-based; conditions: HSAN1 mutants C133W, increasing L-serine medium concentrations, L-alanine constant at 2 mM
Method: as §1, §2

[2] = test system: mutated form of SPT (C133W); type: cell-based; conditions: HEK293 C133W; for SPT activity: fumonisin B1 24 h, 1 mM L-cycloserine, 10 mM D-serine
Method: Cells were cultivated in normal media without any supplementation (A) or in the presence of 10 mM L-alanine (B), 10 mM glycine (C); 1 mM L-cycloserine (D); 10 mM D-alanine (E), 10 mM D-serine (F) or 10 mM L-serine (G).
HEK293 cells expressing a mutated form of SPT (C133W) were cultured in the presence of various amino acids and structurally related compounds. The cells were additionally treated with fumonisin B1 (see Example 1).
(§3) A further suitable method to screen for putative suppressors of deoxy-sphingolipid synthesis is as follows: a suitable cell line (e.g. HEK293) is cultured to approximately 60% confluency. The compound of interest is added to the culture medium in the appropriate concentration. Additionally, fumonisin B1 (FB1) is added to a final concentration of 10 μg/ml. After 24 h of incubation, cells are washed with PBS and harvested and an aliquot separated for cell counting. The remaining cells are pelleted and extracted in 500 μl extraction buffer (4 volumes MeOH/KOH+1 volume CHCl3), including an internal reference standard (e.g. deuteriated (d7)-sphinganine, (d7)-sphingosine or synthetic C17-sphingosine). Subsequently, 500 μl chloroform, 500 μl alkaline water and 100 μl 2N ammonia are added, followed by centrifugation (120000×g, 5 min). The upper phase is discarded and the organic phase washed twice with alkaline water. Lipids are dried under a stream of N2 and resolubilized in 50 μl ethanol (95%) and 100 μl methanol:H2O (85:15). The lipids are finally derivatized with o-phthaldialdehyde (OPA) and analysed by LC-MS. OPA derivates are separated on a C18 column. Mobile phase is ammonium acetate (5 mM):methanol=17:83 (25 min, isocratic), followed by a wash with 100% methanol (5 min) at a flow rate of 300 μl/min. Deoxysphingoid bases are ionised by APCI (atmospheric pressure chemical ionisation) and analysed in positive ion mode.

HSAN1 mice = experiment: L-serine or L-alanine enriched diet in transgenic HSAN1 mice (C133W SPTLC1); type: in vivo
Excerpt: Mice received an L-serine or L-alanine enriched diet (10% L-Serine or L-Alanine w/w) for a period 15 days. […] Plasma deoxy-sphingolipid levels remained low during the whole treatment period (A, pmol/ml; B, days).
Transgenic mice expressing a mutant (C133W) form of SPTLC1 develop a peripheral neuropathy within 10 to 15 months of life. The development of a neuropathy in these HSAN1 mice correlates with highly elevated deoxy-sphinganine and deoxy-sphingosine plasma levels.

HSAN1 patients = experiment: Oral L-serine supplementation in HSAN1 patients (C133Y); type: in vivo, humans
Method: (A, weeks, B, μM; C, treatment phase; D, washout phase).
14 HSAN1 patients having the C133Y mutation received an oral serine supplementation for a period of 10 weeks followed by a wash out period of two weeks (FIG. 9). Patients were separated in a low dose and a high dose treatment group (n per group=7) receiving either 5 g or 10 g L-serine/day. The plasma sphingolipid composition was analyzed by an acid/base hydrolysis to release the free sphingoid bases. […] In both groups an up to 80% reduction in plasma deoxy-sphingolipid levels was observed. […] During the wash out phase the plasma deoxy-sphingolipid levels raised again.

cellular SPT activity = experiment: Accumulation of sphingoid bases in HEK 293 wt cells treated with fumonisin B1 and cytostatics; type: cell-based; conditions: for DoxSA generation / SA (sphinganine) generation / accumulation: fumonisin B1, increasing concentrations of drug
Method: HEK 293 wt cells were cultured in the presence of increasing concentrations of paclitaxel (FIG. 6-I), etoposide (FIG. 6-II) and thalidomide (FIG. 6-III). The cells were additionally treated with fumonisin B1 (FB1), an inhibitor of ceramide synthase (CerS). The inhibition of CerS leads to an intracellular accumulation of the SPT products, namely sphinganine, deoxy-sphinganine. Since the SPT reaction is the rate limiting step in the de novo synthesis pathway, the amount of accumulated sphingoid bases is a measure of the cellular SPT activity. […] Etoposide increased sphinganine and DoxSA production. […] In contrast to paclitaxel and etiposide, the non-cytostatic thalidomide (FIG. 6-III) had no effect.
as §3

[3] = fumonisin B1, 10 mM supplementation

SMILES: N[C@@H](CO)C(=O)O [L-serine]
- DoxSA formation (SPT (wt enzyme)): significant decrease
- DoxSA formation [1]: significant decrease
- DoxSA formation ([1]; listed as L-erine): efficiently inhibited
- formation of sphinganine [2, 3]: stimulates the formation
- generation of deoxy-sphingoid bases [2, 3]: suppresses
- plasma deoxy-sphinganine and deoxy-sphingosine levels vs untreated mice (HSAN1 mice; enriched diet 10% w/w for 15 days, 3-4 days after start of treatment): remarkable reduction
- reduction in plasma deoxy-sphinganine and deoxy-sphingosine levels (HSAN1 mice; enriched diet 10% w/w, after 4-5 days of treatment): up to 80%
- development of neuropathy (HSAN1 mice; enriched diet, until end of study (18 months), untreated controls neuropathic after 8 to 9 months): did not develop a neuropathy
- difference between low and high dose group (HSAN1 patients; 5 g vs 10 g/day, plasma deoxy-sphingolipid levels): No significant differences
- time to maximal suppression of plasma deoxy-sphinganine and deoxy-sphingosine levels (HSAN1 patients; HSAN1 patients C133Y, oral 5 g or 10 g/day): 6 weeks
- reduction in plasma deoxy-sphingolipid levels (HSAN1 patients; HSAN1 patients C133Y, oral 5 g or 10 g/day, 10 weeks, both groups): up to 80%
- deoxy-sphingolipid plasma levels during treatment period (HSAN1 patients; HSAN1 patients C133Y, oral treatment over ten weeks, until end of treatment): remained suppressed
- plasma deoxy-sphingolipid levels during wash out phase (HSAN1 patients; two weeks wash out after 10 weeks of treatment): raised again

SMILES: N[C@@H]1CON=C1O [cycloserine, reference compound]
- SPT activity [2]: generally inhibitory

SMILES: C[C@H](N)C(=O)O [L-alanine, reference compound]
- formation of deoxy-sphinganine [2, 3]: increased formation
- plasma deoxy-sphingolipid levels (HSAN1 mice; enriched diet): increased
- time to first neuropathic symptoms (HSAN1 mice; enriched diet): 2-3 months

SMILES: O=C1CCC(N2C(=O)c3ccccc3C2=O)C(=O)N1 (centres unmarked) [thalidomide]
- DoxSA generation (cellular SPT activity): no effect
- SA (sphinganine) generation / accumulation (cellular SPT activity): no effect

SMILES: CC(=O)O[C@H]1C(=O)[C@@]2(C)[C@H]([C@H](OC(=O)c3ccccc3)[C@]3(O)C[C@H](OC(=O)[C@H](O)[C@@H](NC(=O)c4ccccc4)c4ccccc4)C(C)=C1C3(C)C)[C@]1(OC(C)=O)CO[C@@H]1C[C@@H]2O [Paclitaxel, paclitaxel]
- DoxSA generation (cellular SPT activity): stimulated DoxSA generation in a dose dependant manner
- SA (sphinganine) generation / accumulation (cellular SPT activity): not altered

SMILES: NCC(=O)O [glycine, reference compound]
- formation of deoxymethyl-sphinganine [2, 3]: stimulate the formation

SMILES: COc1cc([C@@H]2c3cc4c(cc3[C@@H](O[C@@H]3O[C@@H]5CO[C@@H](C)O[C@H]5[C@H](O)[C@H]3O)[C@H]3COC(=O)[C@H]23)OCO4)cc(OC)c1O [Etoposide, etoposide]
- concentration at which DoxSA showed a maximum (cellular SPT activity; fumonisin B1): 0.5 mM
- DoxSA generation (cellular SPT activity): increased
- SA (sphinganine) generation / accumulation (cellular SPT activity): increased in a dose dependant manner

SMILES: N[C@H](CO)C(=O)O [D-serine]
- SPT activity [2]: generally inhibitory
